SMILES strings stand for the structures.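 Results reflect a 48-hour exposure of cells in 96-well plates to compound at five concentrations. TGI marks complete inhibition of growth.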

Among the test systems are SF-295 CNS; HS 578T breast; SNB-75 CNS; RPMI-8226 leukemia; NCI-H460 lung; U251 CNS; RXF 393 renal; PC-3 prostate; HCT-116 colon; COLO 205 colon; A498 renal; HT29 colon; MDA-MB-435; SK-MEL-5 melanoma; UO-31 renal; CCRF-CEM leukemia; NCI-H522 lung; SR leukemia.
Holding throughout (experiment): growth of human tumour cells (NCI), 48 h

As for `Nc1cccc(OCC2CCCN3CCCCC23)c1` (configuration not stated), the TGI with SF-295 CNS came out at 33.8 µM; in the experiment on HS 578T breast it was 35.2 µM; with SNB-75 CNS it was 30.8 µM; in the experiment on RPMI-8226 leukemia, 33.1 µM; in the experiment on NCI-H460 lung, 36.3 µM; with U251 CNS, 44.6 µM. Further, the TGI was 42.7 µM with RXF 393 renal; 37.7 µM in the experiment on PC-3 prostate; 30.4 µM with HCT-116 colon; 36.8 µM in the experiment on COLO 205 colon; 28.2 µM in the experiment on A498 renal; 25.1 µM with HT29 colon. Besides, the TGI was 40.2 µM with MDA-MB-435, 33.8 µM in the experiment with SK-MEL-5 melanoma, 75.2 µM with UO-31 renal and 34.4 µM in the experiment with CCRF-CEM leukemia.
Take `COC(=O)c1ccc(C)cc1CC1Cc2cccc(C)c2C1=O` (configuration not stated): the TGI in the experiment with SF-295 CNS came out at 72.2 µM; in the experiment on HS 578T breast, 39.9 µM; in the experiment on SNB-75 CNS, 36.9 µM; in the experiment with NCI-H460 lung it was 22.7 µM; in the experiment with U251 CNS, 17.4 µM; in the experiment on RXF 393 renal, 30.2 µM. Further, the TGI in the experiment with PC-3 prostate was found to be 64.8 µM; with HCT-116 colon, 20.8 µM; in the experiment with COLO 205 colon it was 30.7 µM; in the experiment on HT29 colon, 6.06 µM; with MDA-MB-435 it was 3.34 µM; in the experiment on SK-MEL-5 melanoma, 11.4 µM. The TGI in the experiment with UO-31 renal is 56.7 µM; in the experiment with CCRF-CEM leukemia it was 51.3 µM; in the experiment on NCI-H522 lung, 6.57 µM.
As to `S=C(N/N=C/c1ccccn1)N1CC2CCC(CC2)C1`, the TGI in the experiment on SF-295 CNS was 11.1 µM; in the experiment on HS 578T breast, 30.6 µM; in the experiment with SNB-75 CNS it was 0.868 µM; in the experiment with NCI-H460 lung it was 0.207 µM; with U251 CNS it was 4.6 µM; with RXF 393 renal, 3.19 µM. In addition, the TGI in the experiment with PC-3 prostate came to 13 µM; in the experiment on HCT-116 colon, 3.88 µM; with A498 renal, 2.93 µM; in the experiment on HT29 colon it was 17.3 µM; with MDA-MB-435 it was 15.1 µM; in the experiment on UO-31 renal, 2.24 µM. In the experiment with NCI-H522 lung, the TGI stood at 3.64 µM.
On to `Cc1cc(S(=O)(=O)Nc2nnc3ccccn23)c(S)cc1Cl`, for which the TGI is 64.8 µM in the experiment with SF-295 CNS; over 100 µM in the experiment on HS 578T breast; over 100 µM in the experiment with RPMI-8226 leukemia; over 100 µM with SR leukemia; over 100 µM with NCI-H460 lung; over 100 µM with U251 CNS. Also, the TGI with PC-3 prostate, in the experiment with HCT-116 colon, in the experiment on COLO 205 colon, in the experiment on A498 renal, with HT29 colon and in the experiment on MDA-MB-435 was over 100 µM throughout. In addition, the TGI in the experiment on SK-MEL-5 melanoma, in the experiment on UO-31 renal and with NCI-H522 lung was over 100 µM each time.
Consider `O=C1CCC2c3ccccc3NCN12` (configuration not stated), for which the TGI in the experiment on SF-295 CNS, in the experiment with HS 578T breast, in the experiment with SNB-75 CNS, with RPMI-8226 leukemia, with NCI-H460 lung and in the experiment on U251 CNS was over 100 µM each time. The TGI with RXF 393 renal, in the experiment with PC-3 prostate, with HCT-116 colon, with COLO 205 colon, in the experiment with A498 renal and in the experiment with HT29 colon was over 100 µM throughout. Besides, the TGI with MDA-MB-435, in the experiment with SK-MEL-5 melanoma, in the experiment on UO-31 renal, in the experiment on CCRF-CEM leukemia and in the experiment with NCI-H522 lung was over 100 µM in each case.
As for `C=CCN1C[C@H](C)N([C@H](c2ccc(C(=O)N(CC)CC)cc2)c2cccc(OC)c2)C[C@H]1C`, the TGI was 58.3 µM in the experiment with SF-295 CNS; over 100 µM in the experiment on HS 578T breast; over 100 µM in the experiment with RPMI-8226 leukemia; over 100 µM in the experiment with SR leukemia; over 100 µM in the experiment on U251 CNS; over 100 µM with PC-3 prostate. For the same compound, the TGI is over 100 µM in the experiment with HCT-116 colon; 38.7 µM with COLO 205 colon; over 100 µM in the experiment on A498 renal; over 100 µM in the experiment with HT29 colon; over 100 µM with MDA-MB-435; 27.6 µM in the experiment with SK-MEL-5 melanoma. Besides, the TGI in the experiment on UO-31 renal and with NCI-H522 lung was over 100 µM throughout.
As to `CCOC(=O)CSC1NC(C(=O)OC)CC1OC` (configuration not stated), the TGI in the experiment with SF-295 CNS, in the experiment on HS 578T breast, with SNB-75 CNS, in the experiment on RPMI-8226 leukemia, with NCI-H460 lung and with U251 CNS was over 100 µM each time. Moreover, the TGI with RXF 393 renal, in the experiment on PC-3 prostate, in the experiment on HCT-116 colon, in the experiment with COLO 205 colon, in the experiment with A498 renal and in the experiment on HT29 colon was over 100 µM each time. The TGI in the experiment with MDA-MB-435, with SK-MEL-5 melanoma, in the experiment with UO-31 renal, in the experiment with CCRF-CEM leukemia and with NCI-H522 lung was over 100 µM in each case.
In the case of `COC(=O)c1cc(O)c(O)c(O)c1-c1c(O)c(O)c(O)c(SC[C@H](NC(=O)OCc2ccccc2)C(=O)OCc2ccccc2)c1C(=O)OC`, the TGI with SF-295 CNS was over 100 µM; in the experiment on HS 578T breast it was over 100 µM; with SNB-75 CNS, 68.1 µM; with RPMI-8226 leukemia, 81.7 µM; in the experiment with NCI-H460 lung, over 100 µM; in the experiment on U251 CNS, 33.5 µM. The TGI is over 100 µM in the experiment with RXF 393 renal; 62.7 µM with PC-3 prostate; 35.7 µM in the experiment on HCT-116 colon; 48.4 µM in the experiment with COLO 205 colon; over 100 µM with A498 renal; 86.5 µM with HT29 colon. Moreover, the figures for the TGI in the experiment with MDA-MB-435, in the experiment on CCRF-CEM leukemia and in the experiment on NCI-H522 lung were 44 µM, over 100 µM and 59.3 µM, respectively.
Consider `C/C(=N\Nc1nc2ccccc2[nH]1)c1cnccn1`, for which the TGI in the experiment with SF-295 CNS was over 76.5 µM; in the experiment with HS 578T breast, over 100 µM; with SNB-75 CNS, over 53.9 µM; with NCI-H460 lung it was over 100 µM; with U251 CNS, over 59.5 µM; in the experiment with RXF 393 renal it was 4.81 µM. In addition, the TGI with PC-3 prostate is over 88.4 µM; with HCT-116 colon it was over 38 µM; in the experiment on COLO 205 colon, over 40.2 µM; with A498 renal, 7.75 µM; in the experiment with HT29 colon, over 48 µM; with MDA-MB-435, over 29.6 µM. For the same compound, the TGI in the experiment with SK-MEL-5 melanoma is 13.2 µM; in the experiment with UO-31 renal it was over 27.2 µM; in the experiment with CCRF-CEM leukemia it was 6.75 µM.

For the origin of these results see PubChem BioAssay (NCI).
